Data reported in patent EP0292365A2, “4-Amino-5,8-quinazolindione derivatives, process for their preparation and pharmaceutical compositions containing them” (CENTRE NATIONAL DE LA RECHERCHE SCIENTIFIQUE, priority 1987, dated 1988).

Legend:
[1] = test system: cellules leucémiques L 1210; assay: In vitro cytotoxicity: growth inhibition of L 1210 leukemia cells (Coulter count); format: cell-based, souris; conditions: Mus musculus, L1210, 48 h, read-out: CI50 après 48 h de culture
Description: La détermination de la cytotoxicité in vitro sur les cellules leucémiques L 1210 est la méthode utilisée pour sélectionner les molécules potentiellement antitumorales. Le protocole mis en oeuvre est le suivant :
les cellules leucématiques L 1210 adaptées à la culture en suspension stationnaire sont entretenues dans du milieu RPMI 1640 (commercialisé par Seromed) additionné de 20 % de sérum de cheval décomplémenté, L-glutamine (2 mM), pénicilline (200 U/ml), streptomycine (50µg/ml) et cultivées à 37° C dans une atmosphère à 5 % de C02. Les cultures testées par la méthode de BARILE (BARILE M.F. Mycoplasmal contamination of cell culture, in Contamination in Tissue Culture, J. Fogh (ed.) Acad. Press, 132-156, 1973) sont exemptes de contaminations bactériennes et mycoplasmiques.
Pour les expérimentations, les cellules sont ensemencées à la concentration de 0,8.10^5 cellules/ml et cultivées par 2 ml dans des flacons de 15 ml. Les substances à étudier sont dissoutes dans du DMSO (1 % final) dont on a préalablement vérifié l'innocuité. Des quantités croissantes de produit à tester sont ajoutées au temps 0 et des numérations sont faites au compteur COULTER après 24 et 48 heures de culture. Des séries de contrôle sont effectuées avec des quantités de DMSO équivalentes à celles des séries traitées.
Le temps de doublement des cellules témoins est approximativement de 12 heures.
La cytotoxicité est déterminée d'après l'inhibition de croissance des cellules L 1210, calculée par rapport aux témoins correspondants selon la formule : [formula] • T = concentration de cellules non traitées, • t = concentration de cellules traitées.
La concentration de produit qui diminue la croissance cellulaire de 50 % (Clso) est calculée d'après la méthode des régressions linéaires en coordonnées log-probit.
Lorsque la Cl50 est voisine de la micromolarité (égale ou inférieure à 1 µM), il existe une présomption d'activité antitumorale et les essais in vivo indiqués ci-après sont effectués.
A titre d'exemple, la CI50 mesurée 48 heures après traitement des cellules par les composés de l'invention testés est la suivante : […]

cellules de lignée MCF-7 = assay: Effect on in vitro cell growth, MCF-7 line (Feulgen staining, automated scanning microscopy); format: cell-based, humaine; conditions: for nombre de cellules observées par champ de microscope: MCF-7
Description: (§1) Les cellules tumorales en croissance exponentielle sont ensemencées (10.000 cellules/ml) dans des boîtes à Petri contenant au fond de la boîte un couvre-objet (18 x 18 mm) et 3 ml de MEM (MEM = milieu essentiel minimum) + 5 % FCS (FCS = serum de veau fetal) (v/v). Après 24 heures d'incubation, quand les cellules sont bien attachées au fond de la boîte, le milieu est remplacé par MEM expérimental contenant 5 % FCS (v/v) et enrichi, par exemple de : • a) 3 ml du milieu (MEM + 5 % FCS) = témoins • b) 3 ml du milieu contenant une dose élevée du composé à tester : 10 µg/ml : (M) • c) milieu contenant une faible dose du composé à tester : 0.01 µg/ml (f) respectivement aux jours 1, 2, 3 et 4 après addition du milieu expérimental dans les boîtes de Petri. Trois couvre-objets sont fixés pour chaque condition expérimentale : éthanol 95° (75 v), formol neutre à 40 % (20 v), acide acétique (5 v), pendant 10 minutes. Les cellules témoins cultivées dans le milieu expérimental sans le produit à tester sont fixées au même moment. A la fin de la fixation, les couvre-objets sont retournés et montés sur des lames histologiques à l'aide de produit commercialisé sous la marque DPX par la Société British Drug House et conservés à l'abri de la lumière et à 4° en attendant d'être colorés.
(§2) Les lames avec les couvre-objets sont colorées par une réaction de Feulgen modifiée. Toutes les lames d'une condition expérimentale sont conditionnées par le réactif de Feulgen en même temps, pendant une heure, après hydrolyse dans un milieu HCI 6N pendant une heure à 20° C. Les préparations cellulaires sont ensuite conservées à l'abri de la lumière et à 4°C en attendant l'analyse.
(§3) Grâce à un système d'analyse microscopique à balayage automatique, on détermine l'effet de la drogue sur la croissance cellulaire, au cours du temps, sur deux lignées cellulaires tumorales d'origine humaine : la lignée MCF-7 d'origine mammaire et la lignée HBL (mélanome malin).
(§4) On a représenté dans le tableau C les résultats relatifs à l'action du composé 63 sur la croissance des cellules de lignée MCF-7 et dans le tableau C BIS, les résultats relatifs à l'action du composé 63 sur la croissance des cellules de lignée HBL. Ces résultats montrent le nombre de cellules survivant au traitement après 1, 2, 3 et 4 jours d'incubation et à trois doses différentes (10 µg/ml, 1 µg/ml et 0,1 µg/ml).
(§5) Chaque chiffre correspond au nombre de cellules observées par champ de microscope.

cellules de lignée HBL = assay: Effect on in vitro cell growth, HBL line (Feulgen staining, automated scanning microscopy); format: cell-based, humaine; conditions: for nombre de cellules observées par champ de microscope: HBL
Description: as §1, §2, §3, §4, §5

For `CN(C)CCCNc1ncnc2c1C(=O)C(N1CC1)=C(N1CC1)C2=O` [composé 63], the IC50 [1] was 2.7 nM, the “nombre de cellules observées par champ de microscope” value (cellules de lignée MCF-7; 0.1µg/ml (f), 1j) was 174± 38 ns and the “nombre de cellules observées par champ de microscope” value (cellules de lignée MCF-7; 0.1µg/ml (f), 2j) was 92± 21. For the same molecule, the “nombre de cellules observées par champ de microscope” value (cellules de lignée MCF-7; 0.1µg/ml (f), 3j) was 38± 6, the “nombre de cellules observées par champ de microscope” value (cellules de lignée MCF-7; 0.1µg/ml (f), 4j) was 30± 4 and the “nombre de cellules observées par champ de microscope” value (cellules de lignée MCF-7; 1µg/ml (M), 1j) was 133± 7 ns. For the same molecule, the “nombre de cellules observées par champ de microscope” value (cellules de lignée MCF-7; 1µg/ml (M), 2j) was 85± 8, the “nombre de cellules observées par champ de microscope” value (cellules de lignée MCF-7; 1µg/ml (M), 3j) was 58± 7 and the “nombre de cellules observées par champ de microscope” value (cellules de lignée MCF-7; 1µg/ml (M), 4j) was 63± 8. For the same molecule, the “nombre de cellules observées par champ de microscope” value (cellules de lignée MCF-7; 10µg/ml (F), 1j) was 128± 11 ns, the “nombre de cellules observées par champ de microscope” value (cellules de lignée MCF-7; 10µg/ml (F), 2j) was 93± 4 and the “nombre de cellules observées par champ de microscope” value (cellules de lignée MCF-7; 10µg/ml (F), 3j) was 87± 20. For the same molecule, the “nombre de cellules observées par champ de microscope” value (cellules de lignée MCF-7; 10µg/ml (F), 4j) was 88± 18, the “croissance des cellules MCF-7” value (cellules de lignée MCF-7; dose-indépendante, summary of tableau C) was “ralentit fortement la croissance” and the “nombre de cellules observées par champ de microscope” value (cellules de lignée HBL; 0.1µg/ml (f), 1j) was 402±100 ns. The “nombre de cellules observées par champ de microscope” value (cellules de lignée HBL; 0.1µg/ml (f), 2j) was 233± 36, the “nombre de cellules observées par champ de microscope” value (cellules de lignée HBL; 0.1µg/ml (f), 3j) was 633± 83 ns and the “nombre de cellules observées par champ de microscope” value (cellules de lignée HBL; 0.1µg/ml (f), 4j) was 474±265 ns. The “nombre de cellules observées par champ de microscope” value (cellules de lignée HBL; 1µg/ml (M), 1j) was 282± 17 ns, the “nombre de cellules observées par champ de microscope” value (cellules de lignée HBL; 1µg/ml (M), 2j) was 187± 35 and the “nombre de cellules observées par champ de microscope” value (cellules de lignée HBL; 1µg/ml (M), 3j) was 199± 71. For the same molecule, the “nombre de cellules observées par champ de microscope” value (cellules de lignée HBL; 1µg/ml (M), 4j) was 197± 67, the “nombre de cellules observées par champ de microscope” value (cellules de lignée HBL; 10µg/ml (F), 1j) was 318± 83 ns and the “nombre de cellules observées par champ de microscope” value (cellules de lignée HBL; 10µg/ml (F), 2j) was 166± 28. For the same molecule, the “nombre de cellules observées par champ de microscope” value (cellules de lignée HBL; 10µg/ml (F), 3j) was 553±100 ns, the “nombre de cellules observées par champ de microscope” value (cellules de lignée HBL; 10µg/ml (F), 4j) was 210± 48 and the “croissance des cellules HBL” value (cellules de lignée HBL; à moyenne et forte dose, summary of tableau C BIS) was “ralentit faiblement la croissance”.
